Data from PubChem BioAssay (NCI).
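Five compound concentrations were applied to cells in 96-well plates for 48 hours; endpoints were derived by simple linear interpolation of the resulting dose-response curve. TGI denotes the concentration required for complete inhibition of growth.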

Assays:
Test in all cases: DTP human tumour cell line panel, 48 h
SF-295 CNS = test system: SF-295 CNS
A549 NSCLC = test system: A549 NSCLC
786-0 renal = test system: 786-0 renal
UO-31 renal = test system: UO-31 renal
K-562 leukemia = test system: K-562 leukemia
HL-60(TB) leukemia = test system: HL-60(TB) leukemia
RXF-631 renal = test system: RXF-631 renal
HOP-92 NSCLC = test system: HOP-92 NSCLC
OVCAR-3 ovarian = test system: OVCAR-3 ovarian
HOP-18 NSCLC = test system: HOP-18 NSCLC
OVCAR-5 ovarian = test system: OVCAR-5 ovarian
MALME-3M melanoma = test system: MALME-3M melanoma
ACHN renal = test system: ACHN renal
TK-10 renal = test system: TK-10 renal
NCI-H460 lung = test system: NCI-H460 lung
KM20L2 colon = test system: KM20L2 colon
SNB-78 CNS = test system: SNB-78 CNS
U251 CNS = test system: U251 CNS
COLO 205 colon = test system: COLO 205 colon
HT29 colon = test system: HT29 colon
LOX IMVI melanoma = test system: LOX IMVI melanoma
NCI-H522 lung = test system: NCI-H522 lung
M19-MEL melanoma = test system: M19-MEL melanoma
IGROV1 ovarian = test system: IGROV1 ovarian
NCI-H23 lung = test system: NCI-H23 lung
HOP-62 NSCLC = test system: HOP-62 NSCLC
DMS 114 small cell lung = test system: DMS 114 small cell lung
LXFL 529 NSCLC = test system: LXFL 529 NSCLC
SF-539 CNS = test system: SF-539 CNS
SW-620 colon = test system: SW-620 colon
SK-OV-3 ovarian = test system: SK-OV-3 ovarian
RXF 393 renal = test system: RXF 393 renal
SF-268 CNS = test system: SF-268 CNS
SNB-75 CNS = test system: SNB-75 CNS
KM12 colon = test system: KM12 colon
SK-MEL-28 melanoma = test system: SK-MEL-28 melanoma
SK-MEL-5 melanoma = test system: SK-MEL-5 melanoma
A498 renal = test system: A498 renal
UACC-257 melanoma = test system: UACC-257 melanoma
MOLT-4 leukemia = test system: MOLT-4 leukemia
OVCAR-8 ovarian = test system: OVCAR-8 ovarian
DLD-1 colon = test system: DLD-1 colon
RPMI-8226 leukemia = test system: RPMI-8226 leukemia
DMS 273 small cell lung = test system: DMS 273 small cell lung
HCC-2998 colon = test system: HCC-2998 colon
EKVX NSCLC = test system: EKVX NSCLC
HCT-116 colon = test system: HCT-116 colon
SK-MEL-2 melanoma = test system: SK-MEL-2 melanoma
XF 498 CNS = test system: XF 498 CNS
SNB-19 CNS = test system: SNB-19 CNS
CCRF-CEM leukemia = test system: CCRF-CEM leukemia
SR leukemia = test system: SR leukemia
OVCAR-4 ovarian = test system: OVCAR-4 ovarian
UACC-62 melanoma = test system: UACC-62 melanoma
HCT-15 colon = test system: HCT-15 colon
SN12C renal = test system: SN12C renal
M14 melanoma = test system: M14 melanoma
NCI-H226 lung = test system: NCI-H226 lung

O=P(O)(OCC(O)O)OCC(O)O
TGI (SF-295 CNS): > 100 µM | TGI (A549 NSCLC): > 100 µM | TGI (786-0 renal): > 100 µM | TGI (UO-31 renal): > 100 µM | TGI (K-562 leukemia): > 100 µM | TGI (HL-60(TB) leukemia): > 100 µM | TGI (RXF-631 renal): > 100 µM | TGI (HOP-92 NSCLC): > 100 µM | TGI (OVCAR-3 ovarian): > 100 µM | TGI (HOP-18 NSCLC): > 100 µM | TGI (OVCAR-5 ovarian): > 100 µM | TGI (MALME-3M melanoma): > 100 µM | TGI (ACHN renal): > 100 µM | TGI (TK-10 renal): > 100 µM | TGI (NCI-H460 lung): > 100 µM | TGI (KM20L2 colon): > 100 µM | TGI (SNB-78 CNS): > 100 µM | TGI (U251 CNS): > 100 µM | TGI (COLO 205 colon): > 100 µM | TGI (HT29 colon): > 100 µM | TGI (LOX IMVI melanoma): > 100 µM | TGI (NCI-H522 lung): > 100 µM | TGI (M19-MEL melanoma): > 100 µM | TGI (IGROV1 ovarian): > 100 µM | TGI (NCI-H23 lung): > 100 µM | TGI (HOP-62 NSCLC): > 100 µM | TGI (DMS 114 small cell lung): > 100 µM | TGI (LXFL 529 NSCLC): > 100 µM | TGI (SF-539 CNS): > 100 µM | TGI (SW-620 colon): > 100 µM | TGI (SK-OV-3 ovarian): > 100 µM | TGI (RXF 393 renal): > 100 µM | TGI (SF-268 CNS): > 100 µM | TGI (SNB-75 CNS): > 100 µM | TGI (KM12 colon): > 100 µM | TGI (SK-MEL-28 melanoma): > 100 µM | TGI (SK-MEL-5 melanoma): > 100 µM | TGI (A498 renal): > 100 µM | TGI (UACC-257 melanoma): > 100 µM | TGI (MOLT-4 leukemia): > 100 µM | TGI (OVCAR-8 ovarian): > 100 µM | TGI (DLD-1 colon): > 100 µM | TGI (RPMI-8226 leukemia): > 100 µM | TGI (DMS 273 small cell lung): > 100 µM | TGI (HCC-2998 colon): > 100 µM | TGI (EKVX NSCLC): > 100 µM | TGI (HCT-116 colon): > 100 µM | TGI (SK-MEL-2 melanoma): > 100 µM | TGI (XF 498 CNS): > 100 µM | TGI (SNB-19 CNS): > 100 µM | TGI (CCRF-CEM leukemia): > 100 µM

CCOC(=O)C=C1CCN(C(=O)c2ccccc2)CC1
TGI (SF-295 CNS): > 100 µM | TGI (A549 NSCLC): > 100 µM | TGI (786-0 renal): > 100 µM | TGI (UO-31 renal): > 100 µM | TGI (K-562 leukemia): > 100 µM | TGI (HL-60(TB) leukemia): > 100 µM | TGI (RXF-631 renal): > 100 µM | TGI (HOP-92 NSCLC): > 100 µM | TGI (OVCAR-3 ovarian): > 100 µM | TGI (HOP-18 NSCLC): > 100 µM | TGI (OVCAR-5 ovarian): > 100 µM | TGI (SR leukemia): > 100 µM | TGI (MALME-3M melanoma): > 100 µM | TGI (ACHN renal): > 100 µM | TGI (TK-10 renal): > 100 µM | TGI (NCI-H460 lung): > 100 µM | TGI (KM20L2 colon): > 100 µM | TGI (SNB-78 CNS): > 100 µM | TGI (U251 CNS): > 100 µM | TGI (COLO 205 colon): > 100 µM | TGI (OVCAR-4 ovarian): > 100 µM | TGI (HT29 colon): > 100 µM | TGI (LOX IMVI melanoma): > 100 µM | TGI (M19-MEL melanoma): > 100 µM | TGI (IGROV1 ovarian): > 100 µM | TGI (NCI-H23 lung): > 100 µM | TGI (HOP-62 NSCLC): > 100 µM | TGI (UACC-62 melanoma): > 100 µM | TGI (HCT-15 colon): > 100 µM | TGI (LXFL 529 NSCLC): > 100 µM | TGI (SN12C renal): > 100 µM | TGI (SF-539 CNS): > 100 µM | TGI (SW-620 colon): > 100 µM | TGI (SK-OV-3 ovarian): > 100 µM | TGI (RXF 393 renal): > 100 µM | TGI (SF-268 CNS): > 100 µM | TGI (SNB-75 CNS): > 100 µM | TGI (KM12 colon): > 100 µM | TGI (SK-MEL-28 melanoma): > 100 µM | TGI (SK-MEL-5 melanoma): > 100 µM | TGI (A498 renal): > 100 µM | TGI (UACC-257 melanoma): > 100 µM | TGI (M14 melanoma): > 100 µM | TGI (MOLT-4 leukemia): > 100 µM | TGI (OVCAR-8 ovarian): > 100 µM | TGI (DLD-1 colon): > 100 µM | TGI (RPMI-8226 leukemia): > 100 µM | TGI (DMS 273 small cell lung): > 100 µM | TGI (HCC-2998 colon): > 100 µM | TGI (EKVX NSCLC): > 100 µM | TGI (HCT-116 colon): > 100 µM | TGI (SK-MEL-2 melanoma): 0.284 µM | TGI (XF 498 CNS): > 100 µM | TGI (SNB-19 CNS): > 100 µM | TGI (CCRF-CEM leukemia): > 100 µM

CC1(Sc2ccccc2)CN(Cc2ccccc2)C1=O (stereo not given)
TGI (SF-295 CNS): > 100 µM | TGI (A549 NSCLC): > 100 µM | TGI (786-0 renal): > 100 µM | TGI (UO-31 renal): > 100 µM | TGI (K-562 leukemia): > 100 µM | TGI (HL-60(TB) leukemia): > 100 µM | TGI (RXF-631 renal): > 100 µM | TGI (HOP-92 NSCLC): 86 µM | TGI (OVCAR-3 ovarian): > 100 µM | TGI (HOP-18 NSCLC): > 100 µM | TGI (ACHN renal): > 100 µM | TGI (TK-10 renal): > 100 µM | TGI (NCI-H460 lung): > 100 µM | TGI (KM20L2 colon): > 100 µM | TGI (SNB-78 CNS): > 100 µM | TGI (U251 CNS): > 100 µM | TGI (COLO 205 colon): > 100 µM | TGI (OVCAR-4 ovarian): > 100 µM | TGI (HT29 colon): > 100 µM | TGI (LOX IMVI melanoma): > 100 µM | TGI (NCI-H522 lung): > 100 µM | TGI (M19-MEL melanoma): > 100 µM | TGI (IGROV1 ovarian): > 100 µM | TGI (NCI-H23 lung): > 100 µM | TGI (HOP-62 NSCLC): > 100 µM | TGI (UACC-62 melanoma): > 100 µM | TGI (DMS 114 small cell lung): > 100 µM | TGI (HCT-15 colon): > 100 µM | TGI (SN12C renal): > 100 µM | TGI (SF-539 CNS): > 100 µM | TGI (SW-620 colon): > 100 µM | TGI (SK-OV-3 ovarian): > 100 µM | TGI (RXF 393 renal): > 100 µM | TGI (SF-268 CNS): > 100 µM | TGI (SNB-75 CNS): > 100 µM | TGI (KM12 colon): > 100 µM | TGI (SK-MEL-28 melanoma): > 100 µM | TGI (SK-MEL-5 melanoma): > 100 µM | TGI (A498 renal): > 100 µM | TGI (UACC-257 melanoma): > 100 µM | TGI (M14 melanoma): > 100 µM | TGI (MOLT-4 leukemia): > 100 µM | TGI (OVCAR-8 ovarian): > 100 µM | TGI (DLD-1 colon): > 100 µM | TGI (RPMI-8226 leukemia): > 100 µM | TGI (DMS 273 small cell lung): > 100 µM | TGI (HCC-2998 colon): > 100 µM | TGI (EKVX NSCLC): > 100 µM | TGI (HCT-116 colon): > 100 µM | TGI (SK-MEL-2 melanoma): > 100 µM | TGI (XF 498 CNS): > 100 µM | TGI (NCI-H226 lung): > 100 µM | TGI (SNB-19 CNS): > 100 µM | TGI (CCRF-CEM leukemia): > 100 µM
